In patent US11578343B2, “CAS9 proteins including ligand-dependent inteins” (President and Fellows of Harvard College, priority 2014, dated 2023):

Columns and labels:
Type in all cases: cell-based, human
EMX Off 3 = test: High-throughput DNA sequencing of genome modifications; conditions: 500 ng Cas9 plasmid; for Mod. Freq (indels/total sequences), EMX Off 3: Table 4
Experimental: (§1) We assayed these Cas9:sgRNA combinations in human cells for their ability to modify the three on-target loci as well as 11 known off-target genomic sites (Table 3)^4,5,10,13. Cells were treated with or without 1 μM 4-HT during transfection, and after 12 h the media was replaced with fresh media lacking 4-HT. […] Genomic DNA was isolated 60 h post-transfection and analyzed by high-throughput DNA sequencing
(§2) High-throughput DNA sequencing of genome modifications. HEK293-GFP stable cells were transfected with plasmids expressing Cas9 (500 ng) and sgRNA (125 ng) as described above. […] 4-HT (1 μM final), where appropriate, was added during transfection. 12 h after transfection, the media was replaced with full serum media without 4-HT. Genomic DNA was isolated and pooled from three biological replicates 60 h after transfection using a previously reported^11 protocol with a DNAdvance Kit (Agencourt). 150 ng or 200 ng of genomic DNA was used as a template to amplify by PCR the on-target and off-target genomic sites with flanking HTS primer pairs described previously^11. PCR products were purified using RapidTips (Diffinity Genomics) and quantified using the PicoGreen dsDNA Assay Kit (Invitrogen). Purified DNA was PCR amplified with primers containing sequencing adaptors, purified with the MinElute PCR Purification Kit (Qiagen) and AMPure XP PCR Purification (Agencourt). Samples were sequenced on a MiSeq high-throughput DNA sequencer (Illumina), and sequencing data was analyzed as described previously^4.
(§3) Sensitivity limit of off-target cleavage assays. We used paired end sequencing to identify indels caused by genomic on- and off-target cleavage. […] A 1 ng sample of human gDNA represents only ˜330 unique genomes, and thus only ˜330 unique copies of each genomic site are present. PCR amplification for each genomic target was performed on a total of 150 ng or 200 ng of input gDNA, which provides amplicons derived from at most 50,000 or 65,000 unique gDNA copies, respectively. Therefore, the high-throughput sequencing assay cannot detect rare genome modification events that occur at a frequency of less than approximately 1 in 50,000 (0.002%). When comparing between two conditions, such as wt Cas9 vs. intein-Cas9, this threshold becomes approximately 10 in 50,000 (0.02%) when using the Fisher exact test and a conservative multiple comparison correction (Bonferroni with 14 samples). See also Minoche, A. E., Dohm, J. C., & Himmelbauer, H. Evaluation of genomic high-throughput sequencing data generated on Illumina HiSeq and Genome Analyzer systems. Genome Biology 12, R112 (2011).

EMX Off 4 = test: as above; conditions: 500 ng Cas9 plasmid; for Mod. Freq (indels/total sequences), EMX Off 4: Table 4
Experimental: as §1, §2, §3

CLTA On = test: as above; conditions: 500 ng Cas9 plasmid; for Mod. Freq (indels/total sequences), CLTA On: Table 4
Experimental: as §1, §2, §3

CLTA Off 2 = test: as above; conditions: 500 ng Cas9 plasmid; for Mod. Freq (indels/total sequences), CLTA Off 2: Table 4
Experimental: as §1, §2, §3

VEGF Off 3 = test: as above; conditions: 500 ng Cas9 plasmid; for Mod. Freq (indels/total sequences), VEGF Off 3: Table 4
Experimental: as §1, §2, §3

CLTA Off 1 = test: as above; conditions: 500 ng Cas9 plasmid; for Mod. Freq (indels/total sequences), CLTA Off 1: Table 4
Experimental: as §1, §2, §3

VEGF Off 1 = test: as above; conditions: 500 ng Cas9 plasmid; for Mod. Freq (indels/total sequences), VEGF Off 1: Table 4
Experimental: as §1, §2, §3

VEGF Off 2 = test: as above; conditions: 500 ng Cas9 plasmid; for Mod. Freq (indels/total sequences), VEGF Off 2: Table 4
Experimental: as §1, §2, §3

EMX Off 1 = test: as above; conditions: 500 ng Cas9 plasmid; for Mod. Freq (indels/total sequences), EMX Off 1: Table 4
Experimental: as §1, §2, §3

CLTA Off 3 = test: as above; conditions: 500 ng Cas9 plasmid; for Mod. Freq (indels/total sequences), CLTA Off 3: Table 4
Experimental: as §1, §2, §3

VEGF On = test: as above; conditions: 500 ng Cas9 plasmid; for Mod. Freq (indels/total sequences), VEGF On: Table 4
Experimental: as §1, §2, §3

EMX On = test: as above; conditions: 500 ng Cas9 plasmid; for Mod. Freq (indels/total sequences), EMX On: Table 4; for Mod Freq (indels/total sequences), EMX On: +4-HT, Table 6
Experimental: as §1, §2, §3

EMX Off 2 = test: as above; conditions: 500 ng Cas9 plasmid; for Mod. Freq (indels/total sequences), EMX Off 2: Table 4
Experimental: as §1, §2, §3

VEGF Off 4 = test: as above; conditions: 500 ng Cas9 plasmid; for Mod. Freq (indels/total sequences), VEGF Off 4: Table 4
Experimental: as §1, §2, §3

[1] = tested on: EMX, VEGF, and CLTA genomic loci; test: High-throughput DNA sequencing of genome modifications, summary over on-target and off-target sites
Experimental: as §1, §2, §3

## intein(Cys574)-Cas9: Cas9 with 37R3-2 intein replacing Cys574 (SEQ ID NO: 33)
EMX Off 3; +4-HT (1 μM, 12 h)
  Mod. Freq (indels/total sequences), EMX Off 3: 0.29%
EMX Off 3; +4-HT, Table 6
  Mod Freq (indels/total sequences), EMX Off 3: 0.25%
EMX Off 3; −4-HT
  Mod. Freq (indels/total sequences), EMX Off 3: 0.02%
EMX Off 4; +4-HT (1 μM, 12 h)
  Mod. Freq (indels/total sequences), EMX Off 4: 1.13%
EMX Off 4; +4-HT, Table 6
  Mod Freq (indels/total sequences), EMX Off 4: 0.85%
EMX Off 4; −4-HT
  Mod. Freq (indels/total sequences), EMX Off 4: 0.09%
CLTA On; +4-HT (1 μM, 12 h)
  Mod. Freq (indels/total sequences), CLTA On: 7.65%
CLTA On; +4-HT, Table 6
  Mod Freq (indels/total sequences), CLTA On: 6.35%
CLTA On; −4-HT
  Mod. Freq (indels/total sequences), CLTA On: 1.81%
CLTA Off 2; +4-HT (1 μM, 12 h)
  Mod. Freq (indels/total sequences), CLTA Off 2: 0.02%
CLTA Off 2; +4-HT, Table 6
  Mod Freq (indels/total sequences), CLTA Off 2: 0.00%
CLTA Off 2; −4-HT
  Mod. Freq (indels/total sequences), CLTA Off 2: 0.00%
VEGF Off 3; +4-HT (1 μM, 12 h)
  Mod. Freq (indels/total sequences), VEGF Off 3: 0.19%
VEGF Off 3; +4-HT, Table 6
  Mod Freq (indels/total sequences), VEGF Off 3: 0.07%
VEGF Off 3; −4-HT
  Mod. Freq (indels/total sequences), VEGF Off 3: 0.01%
CLTA Off 1; +4-HT (1 μM, 12 h)
  Mod. Freq (indels/total sequences), CLTA Off 1: 0.04%
CLTA Off 1; +4-HT, Table 6
  Mod Freq (indels/total sequences), CLTA Off 1: 0.03%
CLTA Off 1; −4-HT
  Mod. Freq (indels/total sequences), CLTA Off 1: 0.01%
VEGF Off 1; +4-HT (1 μM, 12 h)
  Mod. Freq (indels/total sequences), VEGF Off 1: 4.68%
VEGF Off 1; +4-HT, Table 6
  Mod Freq (indels/total sequences), VEGF Off 1: 3.18%
VEGF Off 1; −4-HT
  Mod. Freq (indels/total sequences), VEGF Off 1: 0.29%
VEGF Off 2; +4-HT (1 μM, 12 h)
  Mod. Freq (indels/total sequences), VEGF Off 2: 0.77%
VEGF Off 2; +4-HT, Table 6
  Mod Freq (indels/total sequences), VEGF Off 2: 0.38%
VEGF Off 2; −4-HT
  Mod. Freq (indels/total sequences), VEGF Off 2: 0.05%
EMX Off 1; +4-HT (1 μM, 12 h)
  Mod. Freq (indels/total sequences), EMX Off 1: 0.27%
EMX Off 1; +4-HT, Table 6
  Mod Freq (indels/total sequences), EMX Off 1: 0.17%
EMX Off 1; −4-HT
  Mod. Freq (indels/total sequences), EMX Off 1: 0.01%
CLTA Off 3; +4-HT (1 μM, 12 h)
  Mod. Freq (indels/total sequences), CLTA Off 3: 0.01%
CLTA Off 3; +4-HT, Table 6
  Mod Freq (indels/total sequences), CLTA Off 3: 0.01%
CLTA Off 3; −4-HT
  Mod. Freq (indels/total sequences), CLTA Off 3: 0.00%
VEGF On; +4-HT (1 μM, 12 h)
  Mod. Freq (indels/total sequences), VEGF On: 3.03%
VEGF On; +4-HT, Table 6
  Mod Freq (indels/total sequences), VEGF On: 2.31%
VEGF On; −4-HT
  Mod. Freq (indels/total sequences), VEGF On: 0.85%
EMX On; +4-HT (1 μM, 12 h)
  Mod. Freq (indels/total sequences), EMX On: 9.47%
EMX On; listed as intein-Cas9 (C574)
  Mod Freq (indels/total sequences), EMX On: 6.42%
EMX On; listed as intein-Cas9(C574)
  Mod Freq (indels/total sequences), EMX On: 6.4%
EMX On; −4-HT
  Mod. Freq (indels/total sequences), EMX On: 0.99%
EMX Off 2; +4-HT (1 μM, 12 h)
  Mod. Freq (indels/total sequences), EMX Off 2: 0.04%
EMX Off 2; +4-HT, Table 6
  Mod Freq (indels/total sequences), EMX Off 2: 0.02%
EMX Off 2; −4-HT
  Mod. Freq (indels/total sequences), EMX Off 2: 0.01%
VEGF Off 4; +4-HT (1 μM, 12 h)
  Mod. Freq (indels/total sequences), VEGF Off 4: 1.40%
VEGF Off 4; +4-HT, Table 6
  Mod Freq (indels/total sequences), VEGF Off 4: 0.91%
VEGF Off 4; −4-HT
  Mod. Freq (indels/total sequences), VEGF Off 4: 0.07%
[1]; EMX locus, all four off-target sites, +4-HT, similar on-target cleavage
  Off-target modification frequency, average fold lower than wild-type Cas9 (80 ng): 4 fold
[1]; absence of 4-HT
  Activity compared to wild-type Cas9: much less active
[1]; presence of 4-HT
  Activity compared to wild-type Cas9: slightly less active than wild-type Cas9
